Results as given in PMC10419185 (International Journal of Molecular Sciences, 2023).
Structures can show the parent of a compound that is named as a salt. Where two headings read alike, the source gives them in different places.

Legend:
[1] = test system: RML-infected hemizygous Tg37+/- mice; settings: mouse, in vivo; cited from earlier work
scrapie-infected mice = settings: cited from earlier work
[2] = test system: 263K scrapie-infected hamster cerebellar tissue slices; assay type: cell-based, golden hamster; settings: for PrPSc levels, comparison of c-Abl tyrosine kinase inhibitors: 10 and 20 μM for 5 weeks (Supplementary Figure S3)
[3] = hamster, in vivo; for T1/2: male, golden
in vivo = settings: male, hamster; for half-life / Tmax: po; for half-life: T1/2; for Kp: B/P ratio (%)
[4] = test system: 22L scrapie-infected Tga20 cerebellar tissue slices; assay type: cell-based, Tga20 mouse; settings: 25 μM, slices cultured for 3 or 5 weeks
[5] = test system: ZW13-2, ZW13-2-22L and ZW13-2-139A cells
263K scrapie strain [6] = assay type: in vivo, golden hamster
ZW13-2-139A cells = assay type: cell-based, mouse
263K scrapie strain [7] = assay type: in vivo, golden hamster; settings: 100 mg/kg IG
[8] = mouse, in vivo; cited from earlier work
ZW13-2-22L cells = assay type: cell-based, mouse

## O=C(CC(=O)c1ccccc1)c1ccccc1 [dibenzoylmethane]
[1]
  survival: significantly prolong survival without reducing the PrP^Sc levels

## Cc1ccc(NC(=O)c2ccc(CN3CCN(C)CC3)cc2)cc1Nc1nccc(-c2cccnc2)n1 [imatinib, imatinib mesylate]
scrapie-infected mice
  survival times of scrapie-infected mice: prolongs the survival times of scrapie-infected mice
[2]
  PrPSc levels, comparison of c-Abl tyrosine kinase inhibitors: had no effect

## Cc1cn(-c2cc(NC(=O)c3ccc(C)c(Nc4nccc(-c5cccnc5)n4)c3)cc(C(F)(F)F)c2)cn1 [nilotinib, nilotinib hydrochloride monohydrate]
[3]; po, 60 mg/kg
  T1/2: 1.4 ± 0.3 h
[3]; po, 100 mg/kg
  T1/2: 1.4 ± 0.7 h
[2]
  PrPSc levels, comparison of c-Abl tyrosine kinase inhibitors: reduced PrP^Sc levels
In vivo; golden, 60 mg/kg
  half-life: 1 ± 0.4 h
In vivo; golden, 100 mg/kg
  half-life: 1.2 ± 0.2 h

## Cc1cn(-c2cc(NC(=O)c3ccc(C)c(Nc4nccc(-c5cnccn5)n4)c3)cc(C(F)(F)F)c2)cn1 [radotinib, Radotinib hydrochloride]
[4]
  PrPSc propagation: reduced PrP^Sc propagation
[5]
  cell viability: No decrease in viability
263K scrapie strain [6]; 30 mg/kg IG, n = 8
  survival time, range: 140–154 dpi
263K scrapie strain [6]; 30 mg/kg IG, n = 8, p = 0.05848
  mean survival time: 145.1 ± 5.3 dpi
263K scrapie strain [6]; 60 mg/kg IG, n = 8
  survival time, range: 112–208 dpi
263K scrapie strain [6]; 60 mg/kg IG, n = 8, p = 0.03022
  mean survival time: 161.0 ± 34.8 dpi
263K scrapie strain [6]; 100 mg/kg IG for the initial 10 weeks (10W-initial), n = 10, p = 0.0446
  survival time: 149.6 ± 25.3 dpi
263K scrapie strain [6]; 100 mg/kg IG for the initial 10 weeks, n = 10
  survival time, range: 112–191 dpi
263K scrapie strain [6]; 100 mg/kg IG once a day, 6 days a week, n = 12
  survival time, range: 124–223 dpi
263K scrapie strain [6]; 100 mg/kg IG once a day, 6 days a week, n = 12, p = 0.00217 vs vehicle (135.1 ± 9.9)
  survival time: 159.3 ± 28.6 dpi
263K scrapie strain [6]; 100 mg/kg IG started 4 weeks postinoculation (4W-post), n = 9, p = 0.02333
  mean survival time: 158.0 ± 31.9 dpi
263K scrapie strain [6]; 100 mg/kg IG started 4 weeks postinoculation, n = 9
  survival time, range: 126–210 dpi
263K scrapie strain [6]; 100 mg/kg IG started 8 weeks postinoculation (8W-post), n = 9, p = 0.08559
  mean survival time: 146.9 ± 23.7 dpi
263K scrapie strain [6]; 100 mg/kg IG started 8 weeks postinoculation, n = 9
  survival time, range: 114–181 dpi
263K scrapie strain [6]; 100 mg/kg intragastrically, nontreated 135 ± 9.9 days
  survival times (abstract): 159 ± 28.6 days
263K scrapie strain [6]; 200 mg/kg IG, n = 8
  survival time, range: 112–210 dpi
263K scrapie strain [6]; 200 mg/kg IG, n = 8, p = 0.01944
  mean survival time: 157.0 ± 33.9 dpi
263K scrapie strain [6]; intraperitoneal route, 10 mg/kg/day 6 days a week, n = 6, no significant difference
  survival time: 155 ± 50 dpi
[3]
  blood–brain barrier crossing in hamsters: effectively crosses the BBB in hamsters
[3]; po, 100 mg/kg
  Tmax Median (range, h): 6.0 ± 1.15 (6.0–8.0) h
ZW13-2-139A cells
  PrPSc levels: mild reduction in PrP^Sc levels
263K scrapie strain [7]; hamsters sacrificed at 146 dpi
  PrPSc levels in the brains, Western blot: markedly decreased
263K scrapie strain [7]; hamsters that died naturally
  PrPSc levels in the brains, Western blot: also high
263K scrapie strain [7]; sacrificed on 146 dpi, compared to control-treated infected hamsters
  total PrP and PK-resistant PrPSc levels in the brains, immunohistochemical staining: definitely lower
[8]
  blood–brain barrier crossing: effectively crosses the blood–brain barrier
[2]; 0–40 μM for 5 weeks
  PrPSc propagation: reduced PrP^Sc propagation in 263K scrapie-infected hamster cerebellar tissue slices in a dose-dependent manner
[2]; 10 μM, final 2 weeks of 5-week culture
  PrPSc propagation, treatment in the final 2 weeks: effectively inhibited PrP^Sc propagation
[2]; 10 μM, final one week of 5-week culture
  PrPSc propagation, one week of treatment: did not reduce PrP^Sc propagation
[2]
  PrPSc levels, comparison of c-Abl tyrosine kinase inhibitors: reduced PrP^Sc accumulation
[2]; 10–40 μM, 2 weeks without drug then final 3 weeks with radotinib
  levels of PrPSc, later treatment: dramatically reduced the levels of PrP^Sc
ZW13-2-22L cells
  PrPSc levels: mild reduction in PrP^Sc levels
In vivo; golden, 60 mg/kg, AUClast
  Kp: 0.137 ± 0.021
In vivo; golden, 60 mg/kg, Cmax
  Kp: 0.137 ± 0.023
In vivo; golden, 100 mg/kg, AUClast
  Kp: 0.232 ± 0.155
In vivo; golden, 100 mg/kg, Cmax
  Kp: 0.149 ± 0.014
In vivo; golden, 60 mg/kg
  Tmax: 6 h
In vivo; golden, 100 mg/kg
  Tmax: 6 h
  half-life: 3.3 h
In vivo; 60 mg/kg, AUClast
  Kp: 0.137 ± 0.021
In vivo; 100 mg/kg, AUClast
  Kp: 0.232 ± 0.155

## O=c1n(CCCN2CCN(c3cccc(Cl)c3)CC2)nc2ccccn12 [trazodone hydrochloride]
[1]
  survival: significantly prolong survival without reducing the PrP^Sc levels
